The numbers were not newly measured in US20100028425A1, “PHARMACEUTICAL COMPOSITION OF ATOVAQUONE” (GLENMARK GENERICS LTD., priority 2008, published 2010), which cites them from elsewhere.

For `O=C1C(O)=C([C@H]2CC[C@H](c3ccc(Cl)cc3)CC2)C(=O)c2ccccc21` [Atovaquone, trans 2-[4-(4-chlorophenyl)cyclohexyl]-3-hydroxy-1,4-naphthalenedione], the solubility in water entry is on record as “practically insoluble”.
